Measured values taken from patent US20130136753A1, “PAXILLIN AS A THERAPEUTIC OR DIAGNOSTIC MARKER FOR CANCER” (UNIVERSITY OF ROCHESTER, priority 2010, published 2013).

Key:
[1] = test system: Erk1/2; assay: Western blot of Erk1/2 phosphorylation in LnCAP cells; format: cell-based, human; details: for DHT-induced Erk1/2 phosphorylation: inhibitor 30 min (100 nM flutamide, 20 μM AG1478, 5 μM Erlotinib, 20 μM PP2, 20 μM galardin) before 25 nM DHT 30 min
Procedure: Thereafter, cells were treated with vehicle (0.1% DMSO) or inhibitors Galardin, PP2, AG1478 (Calbiochem), flutamide, or erlotinib (Sigma) for 30 minutes before stimulation with 0.1% ethanol (vehicle) or 25 nM DHT for 30 minutes.
PC3 or LnCAP cells were treated with non-targeting siRNA pool (ThermoFisher Scientific) or paxillin-specific siRNA according to manufacturer's instructions. Two sets of human paxillin siRNAs were used: 1) human paxillin siRNA (Santa Cruz Biotechnology) containing three target-specific 20-25 nucleotide siRNAs or 2) human paxillin siRNA ON-TARGET plus SMARTpoo1 (ThemoFisher Scientific) containing four siRNAs targeting the paxillin mRNA. […] For experiments involving constitutively active (“CA”) Raf (William Walker, University of Pittsburgh) or MEK (Melanie Cobb, University of Texas Southwestern Medical Center), cells were co-transfected with paxillin or nonspecific siRNAs and cDNAs encoding caRaf or caMEK.

[2] = test system: Src; assay: Western blot of Src phosphorylation in LnCAP cells; format: cell-based, human; details: 20 μM, 30 min before 25 nM DHT
Procedure: (§1) LnCAP and PC3 cell lines were obtained from ATCC and cultured in RPMI 1640 medium (Invitrogen) containing 10% FBS and 1% penicillin-streptomycin. For experiments involving pharmacological inhibitors, cells were treated overnight with serum-free, phenol red-free RPMI 1640 media. Thereafter, cells were treated with vehicle (0.1% DMSO) or inhibitors Galardin, PP2, AG1478 (Calbiochem), flutamide, or erlotinib (Sigma) for 30 minutes before stimulation with 0.1% ethanol (vehicle) or 25 nM DHT for 30 minutes.
(§2) Western blots were performed as described (Evaul and Hammes, “Cross-Talk Between G Protein-Coupled and Epidermal Growth Factor Receptors Regulates Gonadotropin-Mediated Steroidogenesis in Leydig Cells,” J. Biol. Chem. 283(41):27525-27533 (2008), which is hereby incorporated by reference in its entirety). Primary antibodies were: paxillin, paxillinphospho-Tyr118, paxillin-phospho-Tyr31, Akt1/2/3, Akt1/2/3 phospho-Ser473, EGFR at 1:1000 dilution, and EGFR phospho-Tyr845 (1:500) (Santa Cruz Biotechnology); paxillin phospho-Ser126 (Invitrogen); paxillin phospho-Ser83 (ECM Biosciences); p44/42-Erk1/2, phospho-p44/42-Erk1/2 (Thr202/[…]), phospho-Ser217/221-MEK1/2, src, src-phospho-Tyr416 (Cell Signaling Technology) at 1:1000 dilutions and f3-actin (1:5000, Millipore).

[3] = test system: MEK; details: MLTC cells; 20 μM; cited from earlier work
[4] = test system: PSA mRNA; assay: PSA mRNA expression by real time PCR in LnCAP cells; format: cell-based, human; details: 20 μM U0126 or 20 μM AG1478 30 minutes before 25 nM DHT 24 hours
Procedure: RNA was isolated with the RNeasy mini kit (Qiagen) according to manufacturer's instructions. Levels of Kallikrein-related peptidase-3 (KLK3, or prostate-specific antigen (“PSA”)), paxillin, cyclin D1, and GAPDH expression were analyzed by the A/A-Ct method using Taqman gene expression assay primers (assay ID# Hs99999905_ml-GAPDH, Hs02576345_ml-KLK3, Hs99999004_ml-CCND1, and Hs01104424-ml-PXN; Applied Biosystems) on an ABI StepOne plus real-time PCR machine.

[5] = test system: paxillin; assay: Western blot of paxillin phosphorylation in LnCAP cells; format: cell-based, human; details: for DHT-induced paxillin phosphorylation at all four sites (tyrosines 31/118, serines 83/126): AG1478 or 20 μM PP2 before DHT
Procedure: as §1, §2

[6] = test system: EGFR; assay: EGFR transactivation assay in A431 cells; format: cell-based
Procedure: A431 cells were used to detect DHT-mediated release of EGFR ligands from LnCAP cells. A431 cells (ATCC) were cultured in DMEM/F-12 (1:1) medium (Invitrogen) containing 10% FBS and 1% penicillin-streptomycin, serum-starved overnight, and then stimulated with medium from DHT−, DHT+Galardin−, or vehicle (0.1% ethanol)-treated LnCAP cells for 60 minutes. As controls, A431 cells were stimulated with DHT or media alone. Thereafter, A431 cells were isolated for Western blot analysis to detect phosphorylated and total EGFR.

[7] = test system: androgen receptors (AR); assay: Androgen receptor nuclear localization by fluorescence imaging; format: cell-based
Procedure: Cellular staining was carried out using fluorescence imaging for androgen receptors (AR) and DAPI. […] Furthermore, knockdown and rescue experiments confirm that phosphoserine-paxillin is the moiety regulating AR translocation to the nucleus, since the mutant lacking the Erk serine targets (S A) cannot sustain AR nuclear localization (FIG. 17F versus 17E). Importantly, leptomycin B, which prevents nuclear export through CRM, rescues the nuclear localization of the AR in paxillin-knockdown cells stimulated with DHT (FIG. 17D). […] The latter allows the AR to remain in the nucleus, bind DNA, and promote transcription.

[8] = test system: LnCAP cells; assay: MTT cell proliferation assay, LnCAP cells; format: cell-based, human
Procedure: (§3) PC3 or LnCAP cells were treated with non-targeting siRNA pool (ThermoFisher Scientific) or paxillin-specific siRNA according to manufacturer's instructions. Two sets of human paxillin siRNAs were used: 1) human paxillin siRNA (Santa Cruz Biotechnology) containing three target-specific 20-25 nucleotide siRNAs or 2) human paxillin siRNA ON-TARGET plus SMARTpoo1 (ThemoFisher Scientific) containing four siRNAs targeting the paxillin mRNA. The latter was used for all experiments described in the accompanying Examples, although results were similar with both pools. For experiments involving constitutively active (“CA”) Raf (William Walker, University of Pittsburgh) or MEK (Melanie Cobb, University of Texas Southwestern Medical Center), cells were co-transfected with paxillin or nonspecific siRNAs and cDNAs encoding caRaf or caMEK. After 72 hours, cells were treated overnight with serum-free, phenol red-free RPMI 1640 media and stimulated with 0.1% ethanol/DMSO (vehicle), 25 nM DHT (Steraloids), 20 ng/ml EGF (BD Biosciences), or 100 nM PMA (Sigma) for the times indicated for Western blots or 24 hours for MTT assays.
(§4) MTT assays were performed using a colorimetric assay cell proliferation kit (Roche Applied Science) according to the manufacturer's instructions.

[9] = test system: paxillin; assay: Subcellular localization of paxillin and phosphoserine-paxillin; format: cell-based; details: upon stimulation with DHT or EGF
Text: The subcellular localization of paxillin versus phosphoserine-paxillin was first examined. As expected, paxillin is localized primarily in the cytoplasm in resting cells (FIG. 14, unstimulated). […] This confirms the model of FIG. 9C, which posits that phosphoserine-paxillin regulates nuclear processes. Therefore, a common AR-mediated transcriptional event was examined: expression of PSA mRNA. […] Furthermore, knockdown of endogenous paxillin in LnCAP cells prevented DHT-induced induction of PSA mRNA expression and promoter activity (FIGS. 9A and 15). […] Together, these studies further emphasize that paxillin regulates cross-talk between extranuclear kinase signaling and intranuclear transcription.

[10] = test system: paxillin; assay: Western blot of paxillin phosphorylation in PC3 cells; format: cell-based, human
Procedure: FIGS. 8A-D illustrate that PMA-mediated Erk1/2 activation is paxillin-independent, but PMA-mediated proliferation still requires serine phosphorylation of paxillin. In FIG. 8A, paxillin (Pax) or non-targeting (Nsp) siRNA-treated LnCAP cells were serum-starved and treated with PMA (100 nM) or EGF (20 ng/ml) for 30 minutes. Western blots were performed for paxillin and total and phosphorylated Erk1/2. In FIG. 8B, serum-starved PC3 cells were pretreated with 0.1% DMSO or 20 μM U0126 ([…]) for 30 minutes before stimulation with PMA (100 nM) or EGF (20 ng/ml) for another 30 minutes. Thereafter, levels of paxillin and phosphorylated paxillin at tyrosine-118 (Pax p-Y118) and serine-126 (Pax p-S126) were detected by Western blot. In FIG. 8C, cell proliferation (MTT assay) of PC3 cells treated (24 hours) with 0.1% DMSO (M) or 100 nM PMA in the presence or absence of 20 μM U0126. In FIG. 8D, PC3 cells were initially transfected with Paxillin (Pax) or non-targeting (Nsp) siRNA. After 96 hours, media were removed, and cells were then either mock-transfected or transfected with wild-type paxillin (left panel) or paxillin mutated at tyrosines 31/118 (Y31A/Y118A, middle panel) or serines 83/126/130 (S83A/S126A/S130A, right panel). […] Cell proliferation was detected by MTT. […]

[11] = test system: PC3 cells; assay: MTT cell proliferation assay, PC3 cells; format: cell-based, human; details: 100 nM PMA 24 hours, 20 μM U0126
Procedure: as §3, §4

[12] = biological target: prostate-specific membrane antigen (PSMA) (Homo sapiens, UniProt Q04609); details: cited from earlier work
Chain of prostate-specific membrane antigen (PSMA) (Q04609 whole entry): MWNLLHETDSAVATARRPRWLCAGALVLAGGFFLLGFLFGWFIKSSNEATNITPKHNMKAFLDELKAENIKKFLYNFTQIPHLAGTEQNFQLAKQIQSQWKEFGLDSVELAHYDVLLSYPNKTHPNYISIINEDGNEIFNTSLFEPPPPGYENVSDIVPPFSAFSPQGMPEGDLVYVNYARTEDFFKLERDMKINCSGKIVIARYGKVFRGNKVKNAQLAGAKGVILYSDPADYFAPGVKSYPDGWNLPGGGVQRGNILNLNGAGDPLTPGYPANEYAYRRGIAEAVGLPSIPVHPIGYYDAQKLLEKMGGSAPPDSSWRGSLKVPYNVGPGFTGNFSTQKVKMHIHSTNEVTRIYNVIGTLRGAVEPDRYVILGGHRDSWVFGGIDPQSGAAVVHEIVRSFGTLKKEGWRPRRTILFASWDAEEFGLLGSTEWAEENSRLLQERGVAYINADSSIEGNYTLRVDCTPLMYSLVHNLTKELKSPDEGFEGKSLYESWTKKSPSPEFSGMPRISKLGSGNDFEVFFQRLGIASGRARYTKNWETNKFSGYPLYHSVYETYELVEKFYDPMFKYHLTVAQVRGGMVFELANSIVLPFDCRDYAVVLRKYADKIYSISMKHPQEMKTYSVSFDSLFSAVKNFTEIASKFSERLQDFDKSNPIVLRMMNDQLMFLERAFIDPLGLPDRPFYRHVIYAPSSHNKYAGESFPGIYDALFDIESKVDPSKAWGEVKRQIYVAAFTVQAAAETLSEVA

COc1cc2ncnc(Nc3cccc(Cl)c3)c2cc1OC [AG1478]
EGF-induced Erk activation ([1]; 20 μM AG1478, EGF 20 ng/ml): specifically blocks
FGF-induced Erk activation ([1]; 20 μM AG1478, FGF 25 ng/ml): does not block
DHT-induced Erk1/2 phosphorylation [1]: blocked
DHT-induced Src phosphorylation [2]: blocked
EGF but not FGF-induced MEK activation [3]: specifically blocks
DHT-induced expression of PSA mRNA [4]: abrogated
DHT-induced paxillin phosphorylation at all four sites (tyrosines 31/118, serines 83/126) [5]: abrogated

C[C@]12CCC(=O)C[C@@H]1CC[C@@H]1[C@@H]2CC[C@]2(C)[C@@H](O)CC[C@@H]12 [DHT]
EGF receptor activation in A431 cells, direct stimulation ([6]; DHT alone (25 nM), no LnCAP cells): did not promote
EGF receptor phosphorylation in A431 cells by medium from treated LnCAP cells ([6]; medium from 25 nM DHT-treated LnCAP cells, 60 minutes): increased
Erk1/2 activation from 15 to 120 minutes ([1]; 25 nM DHT or 20 ng/ml EGF): induced
Erk1/2 phosphorylation/activation ([1]; 25 nM DHT, 30 minutes): significantly induced
AR nuclear localization ([7]; DHT-treatment): promotes
LnCAP proliferation by both MTT and BrdU incorporation ([8]; 0.1-100 nM DHT): promoted
cell proliferation (MTT) ([8]; LnCAP, DHT 25 nM or EGF 20 ng/ml, 24 hours): significantly stimulated
phosphorylation of paxillin at tyrosines 31/118 and serines 83/126 ([5]; 25 nM DHT, 30 minutes): triggered
localization of total paxillin (T-Pax) [9]: relocalizes the nucleus
share of phosphoserine-paxillin (PS-PAX) in the nucleus [9]: nearly all

C#Cc1cccc(Nc2ncnc3cc(OCCOC)c(OCCOC)cc23)c1 [Erlotinib]
DHT-induced Erk1/2 phosphorylation [1]: blocked

CCCCCCCCCCCCCC(=O)O[C@@H]1[C@@H](C)[C@@]2(O)[C@@H](C=C(CO)C[C@]3(O)C(=O)C(C)=C[C@@H]23)[C@@H]2C(C)(C)[C@]12OC(C)=O [PMA]
paxillin phosphorylation (tyrosine and serine) ([10]; PMA 100 nM or EGF 20 ng/ml, 30 minutes): only promoted serine phosphorylation

CC(C)(C)n1nc(-c2ccc(Cl)cc2)c2c(N)ncnc21 [PP2]
DHT-induced Erk1/2 phosphorylation [1]: blocked
DHT-induced paxillin phosphorylation at all four sites (tyrosines 31/118, serines 83/126) [5]: abrogated

N#CC(=C(/N)Sc1ccccc1N)/C(C#N)=C(\N)Sc1ccccc1N [U0126]
PMA-induced proliferation of PC3 cells [11]: blocked
DHT-induced expression of PSA mRNA [4]: abrogated
DHT-induced phosphorylation of paxillin at serines 83/126 ([5]; 20 μM U0126): blocked
PMA-induced serine phosphorylation of paxillin ([10]; 20 μM U0126): blocked

CNC(=O)[C@H](Cc1c[nH]c2ccccc12)NC(=O)[C@@H](CC(=O)NO)CC(C)C [galardin]
ability of medium from DHT-treated LnCAP cells to activate EGF receptor signaling in A431 cells ([6]; 20 μM galardin added to DHT (25 nM)-treated LnCAP cells): blocked
DHT-induced Erk1/2 phosphorylation [1]: block

CCC(=C/[C@H](C)C/C=C/C(C)=C/[C@@H](C)C(=O)[C@@H](C)[C@H](O)[C@@H](C)C/C(C)=C/C(=O)O)/C=C/[C@@H]1OC(=O)C=C[C@@H]1C [leptomycin B]
nuclear localization of the AR in paxillin-knockdown cells stimulated with DHT ([7]; leptomycin B prevents nuclear export through CRM): rescues

Aptamer A10-3: RNA aptamer which binds specifically to PSMA (GGGAGGACGAUGCGGAUCAGCCAUGUUUACGUCACUCCUUGUCAAUCCUCAUCGGC; listed as RNA, chemistry not given here)
binding to PSMA [12]: binds specifically

B1: Aptamer A10: RNA aptamer which binds specifically to PSMA (nucleic acid)
chain: GGGAGGACGAUGCGGAUCAGCCAUGUUUACGUCACUCCUUGUCAAUCCUCAUCGGCAGACGACUCGCCCGA
modifications: listed as RNA, chemistry not given here
binding to PSMA [12]: binds specifically

B2: Aptamer A9: RNA aptamer which binds specifically to PSMA (nucleic acid)
chain: GGGAGGACGAUGCGGACCGAAAAAGACCUGACUUCUAUACUAAGUCUACGUUCCCAGACGACUCGCCCGA
modifications: listed as RNA, chemistry not given here
binding to PSMA [12]: binds specifically
